Entries after “also recorded” stand apart in the source; their conditions may differ. Like-named read-outs stand apart in the source and are kept apart here.
What was measured:
[1] = system: hemorrhoid inflammation symptoms; test: Hemorrhoid inflammation symptoms, oral or topical; format: in vivo; conditions: given either orally or topically
Text: These perianal pathological changes somewhat similar to hemorrhoid inflammation symptoms. […] This new used of beta2 agonists in treatment of hemorrhoid inflammation symptoms has never been disclosed in prior art.

TNBS-induced colitis = TNBS-induced colitis (model for Crohn's disease); format: in vivo, Male mice
Text: Male mice colitis was induced by rectal co-administration of ethanol and TNBS (Trinitrobenzenesulfonic acid). Severe colitis in mice that was characterized by weight loss and diarrhea. Histologically there were loss of normal structures, visible discrete epithelioid granuloma, multiple erosive lesions, massive transmural inflammation infiltration of lymphocytes, and the loss of goblet cells. […] There was significant alleviation of lesions, few inflammatory infiltration with growing crypts and recovery mucosa epithelia along the column. […] In addition, in TNBS treated colitis mice, there were perianal symptoms: erythema, abscesses and ulcers found in some mice, which may lead to perianal fissures or fistulas. […] The therapeutically effects of R-salbuterol, R-clenbuterol and R-bambuterol on the symptoms in TNBS induced Crohn's disease has never been reported in prior art.

[2] = system: DSS induced acute colitis; conditions: for colon histology (H&E), in words: Example 1, compared with untreated DSS mice; for Hist score (histological score): epithelium 0-4 plus infiltration 0-4; for Hist score (histological score) / Col Length (colon length): tenth day; for Hist score (histological score) / FOB (fecal occult blood) / Weight / DAI (disease active index) / Col Length (colon length): 1 mg/kg (R-B, S-B 10 mg/kg; RS-C 2 mg/kg); for Hist score (histological score) / FOB (fecal occult blood) / Weight / Col Length (colon length): mean ± SD; for FOB (fecal occult blood): grade 0, 2, 4; for FOB (fecal occult blood) / Weight / Col Length (colon length): i.g. daily 8 days; for DAI (disease active index): score 0 to 12, i.g. daily 8 days from 2nd day of DSS, n=5
Text: In one embodiment, IBD was induced in mice by add DSS into drink water for 7 days. […] (Cooper, S. et al., Clinic pathologic study of dextran sulfate sodium experimental murine colitis, Laboratory Investigation, vol. 69, no. 2, p. 238-249, 1993)
The mice were scarified at day 10th for anatomy and histology evaluations. […] Each of the above histological features was scored individually and added together which is then collectively expressed as “histological score”, for quantitative evaluation (Cooper, S. et al., above).
Male C57BL mice (8-10 weeks, 18-20 g) were grouped into control (drinking water only), DSS and DSS plus treatment groups (n=5). Acute colitis was induced by feeding mice with 2% (w/v) dextran sulfate sodium (DSS) (molecular mass 36-50 kDa) added to the drinking water given ad libitum for 7 days. At the end of seventh day, DSS was removed and animals received only drinking water for 2 days. The animals were euthanized for anatomical and histological examination at the tenth day after DSS ingestion.
R-salbutamol (R-S) (1 mg/kg, S-salbutamol (S-S) (1 mg/kg), R-terbutaline (R-T) (1 mg/kg), S-terbutaline (S-T) (1 mg/kg), R-bambuterol (10 mg/kg), S-bambuterol (S-B) (10 mg/kg), R-clenbuterol (R-C) (1 mg/kg), RS-clenbuterol (RS-C) (2 mg/kg) were administered i.g. daily, starting from the 2nd day of DSS induction for consecutive 8 days. Dexamethasone (Dex), 1 mg/kg) was used as a reference drug.
Evaluation of disease symptoms and histological changes Disease activity index (DAI): Animals were monitored daily for weight, water/food consumption, morbidity, stool consistency and fecal blood. […] The colon length was recorded as an indicator of inflammation. The entire colon was cut open longitudinally and gently flushed with sterile phosphate-buffered saline (PBS) to remove any traces of feces for pathology preparation. Colon segments were fixed in 10% neutral buffered formalin. Tissues were embedded in paraffin, sectioned, mounted on slides. H&E-stained paraffin section images were acquired. Pathological evaluation was conducted in a blinded manner.
Histological Score: the scores were given as follows: epithelium, 0=normal morphology, 1=loss of goblet cells, 2=loss of goblet cells in large areas, 3=loss of crypts, and 4=loss of crypts in large areas; and inflammation cells infiltration, 0=no infiltrate, 1=infiltrate around the crypt basis, 2=infiltrate reaching the muscularis mucosae, 3=extensive infiltration reaching the muscularis mucosae and thickening of the mucosa with abundant edema, and 4=infiltration of the submucosa. Data were presented as mean±the standard deviation (SD).

[3] = system: DSS induced sub-acute colitis; test: Prolonged (two weeks) treatment in DSS induced sub-acute colitis; format: in vivo, mice; conditions: evaluation at 23rd day, salbutamol 1 mg/kg, bambuterol 10 mg/kg
Text: Same as example 2, except. 1), Two Weeks Treatment within a Three Weeks of Study
DSS was removed from drinking water at the end of 1st week. The treatments were started at 1st day for consecutive 14 days (2 weeks). Only drinking water given for the 3rd week. The evaluation and examination were made at 23rd day as did in example 1.

[4] = system: DSS induced sub-acute colitis; format: in vivo; parameters: DAI (disease active index) / FOB (fecal occult blood) / Hist score (histological score): scale not given here; Weight / Col Length (colon length): unit not given here
Text: This invention also disclosed the used of R-salbutamol for treatment of sub acute or chronic phases of IBD. In one embodiment, IBD was induced by DSS as mentioned above, along with the treatment of R-salbutamol, at day 7th, DSS was removed and replaced with drinking water for additional 2 weeks. The disease active index (DAI) of mice was examined and evaluated periodically. The mice were scarified for pathological and histological evaluations at day of 23rd. In DSS induce IBD mice, there were significant loss of weight and fecal occult blood at day 14th and 22nd. The overall condition of colitis was severe although there was slightly improvement comparing the day 7th. The colon-rector length was significant shortened, and histological score were significant higher from control. In mice with DSS induced colitis, there were significant mononuclear leucocytes infiltration, few newly grew crypts with architectural disarray, denegation of epithelia, mucosa aberrant. There was also deep mucosal lymphocytosis, destruction of lamina propria and sometimes, transmural inflammation.
Same as example 1, except • 1), Three weeks' study with one week treatment.
DSS and all the treatment was removed and replaced with drinking water at the end of 1st week. Mice were given drink water and food ad libitum for additional 2 weeks.

[5] = system: knee joints (articular cartilage, meniscus); test: Damage of knee joints in DSS induced IBD mice; format: in vivo; conditions: compared with untreated DSS mice
Text: In one embodiment, in DSS induced IBD mice, there was also a damage of knee joints. The articular cartilage structure became thinner and partially destroyed. The chondrocytes were degenerated, decreased and clustered. The meniscuses were damaged and lost its structural integrity. In X-ray, the layer of articular cartilage was thinner and bone structure was decreased. […] The articular cartilage and bone structure increased toward normal.

[6] = system: IMQ-induced Psoriasis-Like Skin lesions; test: IMQ-induced psoriasis-like skin lesions; format: in vivo, mice; conditions: dorsal skin, IMQ-induced psoriasis mice
Description: Mice were divided into control, psoriasis and psoriasis plus treatment groups, (n=8 in each group). Psoriasis were induced by topical application of imiquimod cream (62.5 mg) on shaved dorsal skin for seven consecutive days. Vaseline was used in control group. There were four treatment groups: three doses of R-salbutamol (R-Sal) (0.5 mg, 1 mg, 2 mg/kg) and Dexamethasone (1 mg/kg) as positive control. All the treatments and same volume of saline (in control group) were administered orally. In some experiment, R-bambuterol (long-last beta2 agonist) was used as an additional treatment group (n=3). Psoriasis Area Severity Index were used for evaluation. Each of the scores for erythema, scaling and skin thickness were measured separately and then group together as a calculative score. (FIG. 2)

psoriasis and eczema = test: Oral administration in rats, psoriasis and eczema; format: in vivo
[7] = system: acne, maliaria, hives and eczema; test: Topical use on acne, maliaria, hives and eczema; format: in vivo
[8] = one week treatment, evaluation at 23rd day, R-S, S-S 1 mg/kg, R-B, S-B 10 mg/kg
[9] = sub-acute or chronic DSS colitis, compared with untreated DSS mice

Row | Compound | hemorrhoid inflammation symptoms [1] | colon histology (H&E), in words [2] | Hist score (histological score) [2] | FOB (fecal occult blood) [2] | Weight [2] | DAI (disease active index) [2] | Col Length (colon length) [2] | DAI, in words [4, 9] | histological index / histological score, in words [4, 9] | psoriasis and eczema (psoriasis and eczema) | symptoms of acne, maliaria, hives and eczema [7] | further results
1 | CN(C)C(=O)Oc1cc(OC(=O)N(C)C)cc([C@@H](O)CNC(C)(C)C)c1 [R-B, R-bambuterol] | significantly alleviated | greatly improved | 5 ± 0.5 | 1 ± 0.5 | 92 ± 3.3 | 6 | 7.2 ± 0.2^ | significantly improved | significantly improved; also recorded: significantly ameliorated |  |  | perianal manifestations (erythema, abscesses, ulcers) (TNBS-induced colitis; TNBS treated mice): significantly alleviated; DAI, in words [3]: return toward normal; histological score, in words [3]: return toward normal; Col Length (colon length) [4, 8]: 7.9 ± 0.3; DAI (disease active index) [4, 8]: 6; FOB (fecal occult blood) [4, 8]: 1.1 ± 0.5; Hist score (histological score) [4, 8]: 4 ± 1; Weight [4, 8]: 112 ± 0.6; fecal occult blood, in words ([4]; sub-acute or chronic DSS colitis, day 14th and 22nd, compared with untreated DSS mice): significantly reduced; damage of articular cartilage, meniscus and bone structure of knee joints [5]: significantly ameliorated; histology of psoriasis skin lesions (HE) [6]: mostly recovered
2 | CC(C)(C)NC[C@H](O)c1cc(Cl)c(N)c(Cl)c1 [R-C, R-clenbuterol] | significantly alleviated | greatly improved | 4.5 ± 0.5^ | 2 ± 0.5 | 89 ± 2.0 | 5 | 7 ± 0.7 | significantly improved | significantly improved | significantly ameliorate | significantly alleviated | submucosa fibrosis and narrowing of intestinal lumen (TNBS-induced colitis; TNBS treated mice): not seen; weight loss, diarrhea, colon length versus normal control mice (TNBS-induced colitis; oral administration): No significant different; disease condition of TNBS colitis, in words (TNBS-induced colitis; oral administration (R-enantiomers)): great ameliorated
3 | CC(C)(C)NC[C@H](O)c1cc(O)cc(O)c1 [R-T, R-terbutaline] |  | greatly improved | 6.0 ± 1^ | 2 ± 0 | 88 ± 1.7 | 8 | 6.6 ± 0.3 | significantly improved | significantly improved | significantly ameliorate | significantly alleviated | 
